# Tests used:
# Jeko-1 = experiment: Combination study, ATPLite 72 h, dose matrix (Synergy Score, CI50); details: combination with Compound 1
# Description: (§1) Cells are thawed from a liquid nitrogen preserved state. Once cells have been expanded and divide at their expected doubling times, screening begins. Cells are seeded in growth media in either black 1536-well or 384-well tissue culture treated plates. Cells are then equilibrated in assay plates via centrifugation and placed in incubators attached to the Dosing Modules at 37° C. for 24 hours before treatment. […] These Tzero (To) plates are read using ultra-sensitive luminescence on Envision plate readers (Perkin Elmer). Treated assay plates are incubated with compound for 72 hours. After 72 hours, plates are developed for endpoint analysis using ATPLite. All data points are collected via automated processes, quality controlled and analyzed using Zalicus software.
# (§2) where T is treated cell count and V is untreated (vehicle) cell count (at 72 hours). I ranges from 0% (when T=V) to 100% (when T=0). […] The measure of effect in the experiment can be the inhibition of cellular response relative to the untreated level (vehicle alone). […] The inhibition ranges from 0% at the untreated level to 100% when T=0. Inhibition levels are negative for agents that actually increase levels. Other effect measures, such as an activity ratio r=T/V may be more appropriate for some assays. When activity ratios (e.g, fold increase over stimulated control) are being used, the effect can be measured using an induction 1=ln(T/V). With this definition, all effect expressions are the same as for inhibition.
# (§3) Growth Inhibition (GI) is used as a measure of cell viability. […] A GI reading of 100% represents complete growth inhibition—T72 compound-treated and T0 vehicle signals are matched. […] A GI reading of 200% represents complete death of all cells in the culture well. Compounds reaching an activity plateau of GI 200% are considered cytotoxic. GI is calculated by applying the following test and equation:
# (§4) Combination analysis data were collected in a 6×6 dose matrix. Synergy is calculated by comparing a combination's response to those of its single compound, against the drug-with-itself dose-additive reference model. Deviations from dose additivity may be assessed visually on an isobologram or numerically with a Combination Index (CI). […] Additive effect is CI=1.0. […] Antagonistic effect is CI>1.0.
# (§5) To measure combination effects in excess of Loewe additivity, a scalar measure to characterize the strength of synergistic interaction termed the Synergy Score is devised. The Synergy Score is calculated as:
# (§6) The fractional inhibition for each component agent and combination point in the matrix is calculated relative to the median of all vehicle-treated control wells. The Synergy Score equation integrates the experimentally-observed activity volume at each point in the matrix in excess of a model surface numerically derived from the activity of the component agents using the Loewe model for additivity. Additional terms in the Synergy Score equation (above) are used to normalize for various dilution factors used for individual agents and to allow for comparison of synergy scores across an entire experiment. The inclusion of positive inhibition gating or an Idata multiplier removes noise near the zero effect level, and biases results for synergistic interactions at that occur at high activity levels.
# (§7) Loewe Volume (Loewe Vol) is used to assess the overall magnitude of the combination interaction in excess of the Loewe additivity model. Loewe Volume is particularly useful when distinguishing synergistic increases in a phenotypic activity (positive Loewe Volume) versus synergistic antagonisms (negative Loewe Volume). […] This model defines additivity as a non-synergistic combination interaction where the combination dose matrix surface should be indistinguishable from either drug crossed with itself.
# GRANTA-519 = experiment: as above; details: combination with Compound 1
# OCI-Ly7 = experiment: as above; details: combination with Compound 1, 72 h
# NCI-H929 = experiment: as above; details: combination with Compound 1
# HH = experiment: as above; format: cell-based; details: combination with Compound 1
# Description: The method is described as follows.
# Additive effect is CI=1.0. […] Antagonistic effect is CI>1.0.
# The Synergy Score is calculated as: […]
# DOHH-2 = experiment: as above; details: combination with Compound 1, 72 h
# SU-DHL-4-epst = experiment: as above; details: combination with Compound 1, 72 h
# TMD8 = experiment: as above; details: combination with Compound 1; TMD8; 72 h
# Description: as §1, §2, §3, §4
# The isobologram was drawn by identifying the locus of concentrations that correspond to crossing the indicated inhibition level. This is done by finding the crossing point for each single agent concentration in a dose matrix across the concentrations of the other single agent. Practically, each vertical concentration CY is held fixed while a bisection algorithm is used to identify the horizontal concentration CX in combination with that vertical dose that gives the chosen effect level in the response surface Z(CX,CY). These concentrations are then connected by linear interpolation to generate the isobologram display. For synergistic interactions, the isobologram contour fall below the additivity threshold and approaches the origin, and an antagonistic interaction would lie above the additivity threshold. The error bars represent the uncertainty arising from the individual data points used to generate the isobologram. The uncertainty for each crossing point is estimated from the response errors using bisection to find the concentrations where Z−αZ(CX,CY) and Z+σZ(CX,CY) cross Icut, where αZ is the standard deviation of the residual error on the effect scale.
# as §5
# The fractional inhibition for each component agent and combination point in the matrix is calculated relative to the median of all vehicle-treated control wells.
# SU-DHL-10-epst = experiment: as above; details: combination with Compound 1, 72 h
# RL = experiment: as above; details: combination with Compound 1, 72 h
# Mino = experiment: as above; details: combination with Compound 1
# RPMI-8226 = experiment: as above; details: combination with Compound 1
# [1] = as above; details: combination with Compound 1; OPM-2
# Description: as §1, §2, §3, §4, §5, §6, §7
# OMP-2 = experiment: as above; details: combination with Compound 1; OPM-2
# Description: as §1, §2, §3, §4, §5, §6, §7
# WSU-NHL = experiment: as above; details: combination with Compound 1, 72 h
# Description: as §1, §2, §3, §4, §5, §6, §7
# HBL-1 = experiment: as above; details: combination with Compound 1, 72 h
# U-2932 = experiment: as above; details: combination with Compound 1, 72 h
# Farage = experiment: as above; details: combination with Compound 1; Farage; 72 h
# OCI-Ly3 = experiment: as above; details: combination with Compound 1; OCI-Ly3; 72 h
# KARPAS-299 = experiment: as above; details: combination with Compound 1
# Description: as §1, §2, §3, §4, §5, §6, §7
# KARPAS-422 = experiment: as above; details: combination with Compound 1, 72 h
structure (smiles),measurement,setting,value
"CS(=O)(=O)N1CCN(Cc2cc3nc(-c4cccc5[nH]ncc45)nc(N4CCOCC4)c3s2)CC1 [GDC-0941, 2-(1H-indazol-4-yl)-6-((4-(methylsulfonyl)piperazin-1-yl)methyl)-4-morpholinothieno[3,2-d]pyrimidine]",CI50 growth inhibition,Jeko-1,S (S=0.01 to <0.5)
same,CI50 inhibition,Jeko-1,S (S=0.01 to <0.5)
same,Synergy Score growth inhibition,Jeko-1,A1 (A1=0.0001 to <1)
same,Synergy Score inhibition,Jeko-1,A1 (A1=0.0001 to <1)
same,CI50 growth inhibition,GRANTA-519,S (S=0.01 to <0.5)
same,CI50 inhibition,GRANTA-519,U (U=0.7 to <1)
same,Synergy Score growth inhibition,GRANTA-519,A2 (A2=1 to <3)
same,Synergy Score inhibition,GRANTA-519,A1 (A1=0.0001 to <1)
same,CI50 growth inhibition,OCI-Ly7,U (U=0.7 to <1)
same,CI50 inhibition,OCI-Ly7,W (W=≥1)
same,Synergy Score growth inhibition,OCI-Ly7,A1 (A1=0.0001 to <1)
same,Synergy Score inhibition,OCI-Ly7,A1 (A1=0.0001 to <1)
same,CI50 growth inhibition,NCI-H929,T (T=0.5 to <0.7)
same,CI50 inhibition,NCI-H929,T (T=0.5 to <0.7)
same,Synergy Score growth inhibition,NCI-H929,A3 (A3=>3)
same,Synergy Score inhibition,NCI-H929,A2 (A2=1 to <3)
same,CI50 growth inhibition,HH,W (W=≥1)
same,CI50 inhibition,HH,W (W=≥1)
same,Synergy Score growth inhibition,HH,A1 (A1=0.0001 to <1)
same,Synergy Score inhibition,HH,A1 (A1=0.0001 to <1)
same,CI50 growth inhibition,DOHH-2,T (T=0.5 to <0.7)
same,CI50 inhibition,DOHH-2,T (T=0.5 to <0.7)
same,Synergy Score growth inhibition,DOHH-2,A3 (A3=>3)
same,Synergy Score inhibition,DOHH-2,A2 (A2=1 to <3)
same,CI50 growth inhibition,SU-DHL-4-epst,T (T=0.5 to <0.7)
same,CI50 inhibition,SU-DHL-4-epst,T (T=0.5 to <0.7)
same,Synergy Score growth inhibition,SU-DHL-4-epst,A3 (A3=>3)
same,Synergy Score inhibition,SU-DHL-4-epst,A2 (A2=1 to <3)
same,CI50 growth inhibition,TMD8,U (U=0.7 to <1)
same,CI50 inhibition,TMD8,W (W=≥1)
same,Synergy Score growth inhibition,TMD8,A3 (A3=>3)
same,Synergy Score inhibition,TMD8,A2 (A2=1 to <3)
same,CI50 growth inhibition,SU-DHL-10-epst,S (S=0.01 to <0.5)
same,CI50 inhibition,SU-DHL-10-epst,T (T=0.5 to <0.7)
same,Synergy Score growth inhibition,SU-DHL-10-epst,A3 (A3=>3)
same,Synergy Score inhibition,SU-DHL-10-epst,A2 (A2=1 to <3)
same,CI50 growth inhibition,RL,U (U=0.7 to <1)
same,CI50 inhibition,RL,U (U=0.7 to <1)
same,Synergy Score growth inhibition,RL,A2 (A2=1 to <3)
same,Synergy Score inhibition,RL,A2 (A2=1 to <3)
same,CI50 growth inhibition,Mino,S (S=0.01 to <0.5)
same,CI50 inhibition,Mino,T (T=0.5 to <0.7)
same,Synergy Score growth inhibition,Mino,A2 (A2=1 to <3)
same,Synergy Score inhibition,Mino,A2 (A2=1 to <3)
same,CI50 growth inhibition,RPMI-8226,U (U=0.7 to <1)
same,CI50 inhibition,RPMI-8226,W (W=≥1)
same,Synergy Score growth inhibition,RPMI-8226,A2 (A2=1 to <3)
same,Synergy Score inhibition,RPMI-8226,A1 (A1=0.0001 to <1)
same,CI50 growth inhibition,[1],U (U=0.7 to <1)
same,CI50 inhibition,OMP-2,W (W=≥1)
same,Synergy Score growth inhibition,OMP-2,A3 (A3=>3)
same,Synergy Score inhibition,OMP-2,A1 (A1=0.0001 to <1)
same,CI50 growth inhibition,WSU-NHL,U (U=0.7 to <1)
same,CI50 inhibition,WSU-NHL,T (T=0.5 to <0.7)
same,Synergy Score growth inhibition,WSU-NHL,A3 (A3=>3)
same,Synergy Score inhibition,WSU-NHL,A2 (A2=1 to <3)
same,CI50 growth inhibition,HBL-1,U (U=0.7 to <1)
same,CI50 inhibition,HBL-1,W (W=≥1)
same,Synergy Score growth inhibition,HBL-1,A2 (A2=1 to <3)
same,Synergy Score inhibition,HBL-1,A1 (A1=0.0001 to <1)
same,CI50 growth inhibition,U-2932,T (T=0.5 to <0.7)
same,CI50 inhibition,U-2932,W (W=≥1)
same,Synergy Score growth inhibition,U-2932,A1 (A1=0.0001 to <1)
same,Synergy Score inhibition,U-2932,A1 (A1=0.0001 to <1)
same,CI50 growth inhibition,Farage,T (T=0.5 to <0.7)
same,CI50 inhibition,Farage,S (S=0.01 to <0.5)
same,Synergy Score growth inhibition,Farage,A3 (A3=>3)
same,Synergy Score inhibition,Farage,A2 (A2=1 to <3)
same,CI50 growth inhibition,OCI-Ly3,U (U=0.7 to <1)
same,CI50 inhibition,OCI-Ly3,W (W=≥1)
same,Synergy Score growth inhibition,OCI-Ly3,A1 (A1=0.0001 to <1)
same,Synergy Score inhibition,OCI-Ly3,A1 (A1=0.0001 to <1)
same,CI50 growth inhibition,KARPAS-299,W (W=≥1)
same,Synergy Score growth inhibition,KARPAS-299,A1 (A1=0.0001 to <1)
same,Synergy Score inhibition,KARPAS-299,A1 (A1=0.0001 to <1)
same,CI50 growth inhibition,KARPAS-422,T (T=0.5 to <0.7)
same,CI50 inhibition,KARPAS-422,U (U=0.7 to <1)
same,Synergy Score growth inhibition,KARPAS-422,A1 (A1=0.0001 to <1)
same,Synergy Score inhibition,KARPAS-422,A1 (A1=0.0001 to <1)

# Reference: patent US20240325398A1, “COMBINATION THERAPIES” (Infinity Pharmaceuticals, Inc., priority 2014, published 2024)
